Calls of active or inactive are those of the source. No cut-off for these calls is given here.
Key:
[1] = biological target: T1, Liver X receptor (Homo sapiens) (UniProt Q13133+P55055); assay: Agonist activity at LXR in human THP1 cells assessed as induction of ABCG1 gene expression after 48 hrs by qPCR analysis; type: functional, cell-based; conditions: THP-1
[2] = biological target: T1, Liver X receptor (Homo sapiens); assay: Agonist activity at LXR in human THP1 cells assessed as induction of ABCA1 gene expression after 48 hrs by qPCR analysis; type: functional, cell-based; conditions: THP-1
[3] = biological target: T2, Oxysterols receptor LXR-alpha (Homo sapiens) (UniProt Q13133); assay: Agonist activity at LXR-alpha in human Caco2 cells assessed as reduction in cellular cholesterol level; type: functional, cell-based; conditions: Caco-2
T2 sequence (whole entry): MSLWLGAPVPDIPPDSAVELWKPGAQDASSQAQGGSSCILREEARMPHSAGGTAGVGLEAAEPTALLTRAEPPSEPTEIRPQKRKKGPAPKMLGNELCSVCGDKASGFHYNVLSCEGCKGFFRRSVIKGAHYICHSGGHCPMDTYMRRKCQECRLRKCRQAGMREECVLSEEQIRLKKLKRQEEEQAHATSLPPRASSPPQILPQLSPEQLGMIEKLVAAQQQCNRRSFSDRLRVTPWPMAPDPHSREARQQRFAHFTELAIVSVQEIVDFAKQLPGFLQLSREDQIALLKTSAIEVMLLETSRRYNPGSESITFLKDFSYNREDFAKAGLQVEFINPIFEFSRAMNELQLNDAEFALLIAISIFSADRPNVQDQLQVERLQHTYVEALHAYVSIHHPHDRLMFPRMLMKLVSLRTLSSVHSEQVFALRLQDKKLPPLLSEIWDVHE

[4] = biological target: T2, Oxysterols receptor LXR-alpha (Homo sapiens); assay: Agonist activity at LXR-alpha in human HepG2 cells assessed as reduction in cellular cholesterol level; type: functional, cell-based
[5] = biological target: T2, Oxysterols receptor LXR-alpha (Homo sapiens); assay: Agonist activity at LXR-alpha in human THP1 cells assessed as increase cholesterol efflux to HDL by FACs analysis; type: functional, cell-based; conditions: THP-1
[6] = biological target: T3, Oxysterols receptor LXR-alpha (Mus musculus) (UniProt Q9Z0Y9); assay: Agonist activity at LXR-alpha in mouse RAW264.7 cells assessed as reduction in cellular cholesterol level; type: functional, cell-based
T3 sequence (whole entry): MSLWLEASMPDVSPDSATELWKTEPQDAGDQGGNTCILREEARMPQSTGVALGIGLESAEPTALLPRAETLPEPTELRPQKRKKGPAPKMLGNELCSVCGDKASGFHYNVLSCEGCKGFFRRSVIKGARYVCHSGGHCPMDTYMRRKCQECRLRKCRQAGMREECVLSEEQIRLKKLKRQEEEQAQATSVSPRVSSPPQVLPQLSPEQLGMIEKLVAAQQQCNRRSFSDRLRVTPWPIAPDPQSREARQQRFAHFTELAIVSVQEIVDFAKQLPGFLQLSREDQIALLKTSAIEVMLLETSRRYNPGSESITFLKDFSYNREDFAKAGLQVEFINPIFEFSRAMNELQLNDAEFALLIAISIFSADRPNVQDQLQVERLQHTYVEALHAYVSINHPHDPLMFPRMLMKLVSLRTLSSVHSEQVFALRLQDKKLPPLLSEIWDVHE

[7] = biological target: T4, Oxysterols receptor LXR-beta (Homo sapiens) (UniProt P55055); assay: Binding affinity to human LXR-beta LBD by SPR-Biacore assay
T4 sequence (whole entry): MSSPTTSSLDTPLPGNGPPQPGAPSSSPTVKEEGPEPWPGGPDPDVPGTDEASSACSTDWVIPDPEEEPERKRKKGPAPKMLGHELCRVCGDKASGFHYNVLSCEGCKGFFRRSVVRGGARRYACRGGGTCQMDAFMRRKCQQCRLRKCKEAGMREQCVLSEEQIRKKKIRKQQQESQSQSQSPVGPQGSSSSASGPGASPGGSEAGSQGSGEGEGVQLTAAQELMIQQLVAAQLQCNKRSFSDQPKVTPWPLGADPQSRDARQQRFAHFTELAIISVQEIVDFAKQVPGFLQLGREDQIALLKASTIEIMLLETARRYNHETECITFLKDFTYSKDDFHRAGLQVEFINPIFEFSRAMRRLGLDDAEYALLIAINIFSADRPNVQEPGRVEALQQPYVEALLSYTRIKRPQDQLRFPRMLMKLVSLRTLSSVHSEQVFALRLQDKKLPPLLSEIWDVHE

[8] = biological target: T2, Oxysterols receptor LXR-alpha (Homo sapiens); assay: Binding affinity to human LXR-alpha LBD by SPR-Biacore assay
[9] = biological target: T4, Oxysterols receptor LXR-beta (Homo sapiens); assay: (§1) Agonist activity at human LXR-beta assessed as increase in recruitment of Trap 220/D22 coactivator peptide by TR-FRET assay; type: functional
[10] = biological target: T5, Oxysterols receptor LXR-beta (Homo sapiens, UniProt P55055); assay: as §1; type: functional
T5 sequence (P55055 whole entry): T4 sequence (whole entry)

[11] = biological target: T2, Oxysterols receptor LXR-alpha (Homo sapiens); assay: (§2) Agonist activity at human LXR-alpha assessed as increase in recruitment of Trap 220/Drip2 coactivator peptide by TR-FRET assay; type: functional
[12] = biological target: T6, Oxysterols receptor LXR-alpha (Homo sapiens, UniProt Q13133); assay: as §2; type: functional
T6 sequence (Q13133 whole entry): T2 sequence (whole entry)

[13] = biological target: T7, Peroxisome proliferator-activated receptor gamma (Homo sapiens) (UniProt P37231); assay: Transactivation of PPAR-gamma transfected in HEK293 cells at 50 to 100 uM after 24 hrs by luciferase reporter gene assay; type: cell-based
T7 sequence (whole entry): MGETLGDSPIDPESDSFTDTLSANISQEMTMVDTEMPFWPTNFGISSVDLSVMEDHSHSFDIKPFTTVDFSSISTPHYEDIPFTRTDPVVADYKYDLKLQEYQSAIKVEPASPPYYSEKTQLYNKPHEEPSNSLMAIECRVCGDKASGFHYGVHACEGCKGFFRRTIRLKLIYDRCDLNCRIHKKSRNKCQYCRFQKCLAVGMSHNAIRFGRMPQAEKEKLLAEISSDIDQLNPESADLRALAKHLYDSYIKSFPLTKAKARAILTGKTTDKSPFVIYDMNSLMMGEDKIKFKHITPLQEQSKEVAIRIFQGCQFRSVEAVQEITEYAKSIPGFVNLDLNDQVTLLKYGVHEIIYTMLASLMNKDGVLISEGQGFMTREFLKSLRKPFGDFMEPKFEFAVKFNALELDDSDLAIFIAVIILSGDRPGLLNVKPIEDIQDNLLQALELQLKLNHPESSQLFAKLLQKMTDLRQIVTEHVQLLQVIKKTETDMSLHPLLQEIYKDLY

[14] = biological target: T8, Peroxisome proliferator-activated receptor alpha (Homo sapiens) (UniProt Q07869); assay: Transactivation of PPAR-alpha transfected in HEK293 cells at 50 to 100 uM after 24 hrs by luciferase reporter gene assay; type: cell-based
T8 sequence (whole entry): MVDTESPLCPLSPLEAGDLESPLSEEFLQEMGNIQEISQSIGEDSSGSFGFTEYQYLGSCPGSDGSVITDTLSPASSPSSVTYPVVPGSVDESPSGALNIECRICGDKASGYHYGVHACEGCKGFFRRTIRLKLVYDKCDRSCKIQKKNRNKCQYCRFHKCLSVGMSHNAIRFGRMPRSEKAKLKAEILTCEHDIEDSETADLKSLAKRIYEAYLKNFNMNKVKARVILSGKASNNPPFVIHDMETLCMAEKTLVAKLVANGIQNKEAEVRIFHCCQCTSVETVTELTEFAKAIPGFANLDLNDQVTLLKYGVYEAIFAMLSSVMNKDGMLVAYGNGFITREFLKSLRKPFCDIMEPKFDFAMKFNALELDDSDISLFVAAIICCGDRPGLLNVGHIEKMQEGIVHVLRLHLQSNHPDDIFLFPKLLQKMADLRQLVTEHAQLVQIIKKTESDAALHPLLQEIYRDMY

[15] = biological target: T5, Oxysterols receptor LXR-beta; assay: Transactivation of human LXR-beta transfected in HEK293 cells after 24 hrs by luciferase reporter gene assay; type: cell-based
[16] = biological target: T6, Oxysterols receptor LXR-alpha; assay: Transactivation of human LXR-alpha transfected in HEK293 cells after 24 hrs by luciferase reporter gene assay; type: cell-based
[17] = biological target: T4, Oxysterols receptor LXR-beta (Homo sapiens); assay: Transactivation of human LXR-beta transfected in HEK293 cells at 100 uM after 24 hrs by luciferase reporter gene assay; type: cell-based
[18] = biological target: T2, Oxysterols receptor LXR-alpha (Homo sapiens); assay: Transactivation of human LXR-alpha transfected in HEK293 cells at 100 uM after 24 hrs by luciferase reporter gene assay; type: cell-based
HepG2 = assay: Cytotoxicity against human HepG2 cells after 48 hrs by MTT assay; type: cell-based; conditions: hepg2, 48 h
RAW264.7 = assay: Cytotoxicity against mouse RAW264.7 after 48 hrs by MTT assay; type: cell-based; conditions: raw264.7, 48 h
THP-1 = assay: Cytotoxicity against human THP1 cells after 48 hrs by MTT assay; type: cell-based; conditions: thp-1, 48 h
[19] = biological target: T1, Liver X receptor (Homo sapiens); assay: Agonist activity at LXR in human THP1 cells assessed as induction of ABCA1 gene expression at 100 uM after 48 hrs by immunoblot analysis relative to control; type: functional, cell-based; conditions: THP-1

Activity [1]: Dose-dependent effect
Activity [2]: Dose-dependent effect
Activity [3]: Dose-dependent effect
Activity [4]: Dose-dependent effect
Activity [5]: Dose-dependent effect
Activity [6]: Dose-dependent effect
Activity [7]: Active
Activity [8]: Active
Activity [9]: Dose-dependent effect
EC50 [10]: 3.04 µM
Activity [11]: Dose-dependent effect
EC50 [12]: 1.5 µM
Activity [13]: inactive
Activity [14]: inactive
EC50 [15]: 37.8 µM
EC50 [16]: 80.8 µM
Activity [17]: 55%
Activity [18]: 64%
Activity [19]: Active
SMILES: CCOC(=O)c1c(O)cc(O)cc1O
Activity (HepG2): Non-toxic
Activity (RAW264.7): Non-toxic
Activity (THP-1): Non-toxic
